Experimental findings from US20260109714A1, “PYRIMIDINE-FUSED RING COMPOUND, AND PREPARATION METHOD THEREFOR AND USE THEREOF” (GENFLEET THERAPEUTICS (SHANGHAI) INC., priority 2022, published 2026) are described below.

Experiment [1] relates to AsPC-1 human pancreatic cancer cell with KRAS G12D mutation. In words: Cell proliferation inhibition experiment, 3D CellTiter-Glo, AsPC-1. It is filed as cell-based. Particulars: AsPC-1 cells, 3D spheroid, 5 days. From the text:
(§1) AsPC-1 was purchased from ATCC, Article No.: CRL-1682; AGS was purchased from ATCC, Article No.: CRL-1739; RPMI1640 was purchased from Gibco, Article No.: 11875-093 2235123; F12K was purchased from Gibco, Article No.: 21127-022; FBS was purchased from Gibco, Article No.: 10099-141C; the trypsin (containing EDTA) was purchased from Gibco, Article No.: 25200-072; CellTiter Glo-3D was purchased from Progema, Article No.: G9683; the 384-well spheroid plate was purchased from Corning, Article No.: 3830; the white-bottom opaque 384-well plate was purchased from Corning, Article No.: 3570; the cell counter was purchased from CHEMOMETEC, model: NC-200; the microplate reader was purchased from PerkinElmer, model: Envison;
(§2) AsPC-1, an endogenous human pancreatic cancer cell AsPC-1 with KRAS^G12D mutation, was cultured in RPMI-1640 medium containing 10% FBS. AGS, a human gastric cancer cell line with KRAS^G12D mutation, was cultured in F-12K medium containing 10% FBS. Cells in logarithmic growth period were digested with trypsin (containing EDTA), collected and counted. 800 AsPC-1 cells/well or 400 […] were inoculated in a 384-well spheroid plate, and cultured overnight in an incubator with 5% CO2 to establish a 3D cell model. 1000× compound stock solutions with gradient concentrations of 3.16 times were prepared with DMSO, and 100-fold diluted to 10× compound stock solutions with the culture medium. The 10× compound stock solution was added to each cell culture well on the second day after cell inoculation, to give a final concentration of 1× and DMSO content of 0.1%. DMSO was used as the control, and the culture medium was used as the blank. After the compound was added, the cells were cultured for 5 days. 30 μl CellTiter-Glo working solution was added to each well, and mixed uniformly. The cells were incubated for 30 min, and allowed to stand at room temperature for 30 min. 40 μl of the mixture was transferred to a white-bottom opaque 384-well plate, and the luminescence was read on a microplate reader. The inhibition rate on cell proliferation was calculated by a formula: IR (%)=(RLU of control−RLU of compound)/(RLU of control−RLU of blank)×100%. The gradient concentrations of the compound and the corresponding inhibition rates were fitted by using XLFit four-parameter method, and the IC50 value was calculated. […] The results of some exemplary compounds are shown in Table 2 below (—means not tested).
On the technique in general: ATP-based viability assays read luminescence as a measure of living cells.

The next experiment has as its system AGS p-ERK. As to the kind of experiment: Cell assay for p-ERK (HTRF, Advance ERK phospho-T202/Y204 kit). As to conditions: AGS cells (KRAS G12D), 3 hrs with compound, inhibition of p-ERK level. It is filed as cell-based, human. As for the experimental part:
AGS was purchased from ATCC, Article No.: CRL-1739; F12K was purchased from Gibco, Article No.: 21127-022; FBS was purchased from Gibco, Article No.: 10099-141C; the trypsin (containing EDTA) was purchased from Gibco, Article No.: 25200-072; DMSO was purchased from VWRAMRESCO, Article No.: 0231-500ML; the 96-well cell culture plate was purchased from Corning, Article No.: 3599; the white-bottom opaque 96-well plate was purchased from Cisbio, Article No.: 66PL96025; Advance ERK phospho-T202/Y204 kit was purchased from Cisbio, Article No.: 64AERPEH; the cell counter was purchased from CHEMOMETEC, model: NC-200; the microplate reader was purchased from PerkinElmer, model: Envison.
AGS, an endogenous human gastric adenocarcinoma cell line with KRAS^G12D mutation, was cultured in F12K+10% FBS medium. On the first day of the experiment, cells in logarithmic growth period were digested with trypsin (containing EDTA), collected and counted, and about 20,000 cells/well were inoculated in a 96-well cell culture plate and cultured overnight in an incubator with 5% CO2. 1000× compound stock solutions with gradient concentrations of 3.16 times were prepared with DMSO, and 200-fold diluted to 5× compound stock solutions with the above culture medium. The 5× compound stock solution was added to each cell culture well on the second day after cell inoculation, to give a final concentration of 1× and DMSO content of 0.1%. DMSO was used as experimental control. After adding the compound, the cells were continuously cultured for 3 hrs. Then, the culture medium in the well was removed, and 50 μl/well of cell lysis buffer (from Advanced ERK phospho-T202/Y204 kit, the same hereinafter) was added, and mixed uniformly. The cells were cultured for 30 min. Then 16 μl of the mixture was transferred to a white-bottom opaque 96-well plate, and 16 μl of the cell lysis buffer was added to an additional well and used as a blank. After that, 4 μl of p-ERK HTRF antibody mixed solution (from Advanced ERK Phos Pho-T202/Y204 Kit) was added to each well. After incubation for 4 hrs, the fluorescence value (RLU) of HTRF was read on a microplate reader. The inhibition rate of the compound on p-ERK level was calculated by the formula IR (%)=(RLU of control−RLU of compound)/(RLU of control−RLU of blank)×100%. The compound concentration and the corresponding inhibition rate on p-ERK level in the cells were fitted by using Prism 8 four-parameter method, and the IC50 value was calculated.
A general note: In TR-FRET formats the signal depends on donor and acceptor labels being close together.

Experiment [2] deals with AGS human gastric cancer cell line with KRAS G12D mutation. In words: Cell proliferation inhibition experiment, 3D CellTiter-Glo, AGS. Format: cell-based. As to conditions: AGS cells, 3D spheroid, 5 days.
Excerpt: as §1, §2

Broadly, the IC50 is the midpoint of a concentration-inhibition curve. Consider `C#Cc1cccc2cc(N)cc(-c3nc4c5c(nc(OC[C@]67CCCN6CCC7=C(F)F)nc5c3F)N3C[C@H]5CC[C@H](N5)[C@H]3[C@H](C)O4)c12` [Z959, 4-((5S,5aS,6S,9R)-12-(((R)-1-(difluoromethylene)tetrahydro-1H-pyrrolizin-7a(5H)-yl)methoxy)-1-fluoro-5-methyl-5a,6,7,8,9,10-hexahydro-5H-4-oxa-3,10a,11,13,14-pentaaza-6,9-methanonaphtho[1,8-ab]hepten-2-yl)-5-ethynylnaphthalen-2-amine], for which the half-inhibitory concentration (IC50) is 7.21 nM in experiment [1] (Homo sapiens, ASPC1, 120 h); 1.59 nM in the experiment with AGS p-ERK (Homo sapiens); 7.27 nM in experiment [2] (Homo sapiens, 120 h).
For `[2H]C([2H])([2H])[C@@H]1Oc2nc(-c3cc(N)cc4cccc(C#C)c34)c(F)c3nc(OCC4(CN5CC[C@@H](F)C5)CC4)nc(c23)N2C[C@H]3CC[C@H](N3)[C@@H]12` [Z964, 5-ethynyl-4-((5S,5aS,6S,9R)-1-fluoro-12-((1-(((R)-3-fluoropyrrolidin-1-yl)methyl)cyclopropyl)methoxy)-5-(methyl-d3)-5a,6,7,8,9,10-hexahydro-5H-4-oxa-3,10a,11,13,14-pentaaza-6,9-methanonaphtho[1,8-ab]hepten-2-yl)naphthalen-2-amine], in that order: 1.58 nM, 0.38 nM and 0.51 nM.
Take `C[C@@H]1Oc2nc(-c3cc(N)cc(Cl)c3C(F)(F)F)c(F)c3nc(OC[C@]45CCCN4CC(F)(F)C5)nc(c23)N2C[C@H]3CC[C@H](N3)[C@@H]12` [Z743, 3-chloro-5-((5S,5aS,6S,9R)-12-(((R)-2,2-difluorotetrahydro-1H-pyrrolizin-7a(5H)-yl)methoxy)-1-fluoro-5-methyl-5a,6,7,8,9,10-hexahydro-5H-4-oxa-3,10a,11,13,14-pentaaza-6,9-methanonaphtho[1,8-ab]hepten-2-yl)-4-(trifluoromethyl) aniline]: the IC50 in experiment [1] (Homo sapiens, ASPC1, 120 h) is 2.16 nM; in the experiment with AGS p-ERK (Homo sapiens), 0.84 nM; in experiment [2] (Homo sapiens, 120 h), 1.95 nM.
The like results for `C#Cc1cccc2cc(N)cc(-c3nc4c5c(nc(OCC6(CN7CCC(=C(F)F)C7)CC6)nc5c3F)N3C[C@H]5CC[C@H](N5)[C@H]3[C@H](C)O4)c12` [Z744] were, in that order, 1.99 nM, 0.51 nM and 2.86 nM.
In the case of `C#Cc1cccc2cccc(-c3nc4c5c(nc(OC[C@@]67CCCN6C[C@H](F)C7)nc5c3F)N3C[C@H]5CC[C@H](N5)[C@H]3C(CC)O4)c12` (stereo partly drawn) [Z387, (5S,5aS,6S,9R)-5-ethyl-2-(8-alkynylnaphthalen-1-yl)-1-fluoro-12-(((2R,7aS)-2-fluorotetrahydro-1H-pyrrolizin-7a(5H)-yl)methoxy)-5a,6,7,8,9,10-hexahydro-5H-4-oxy-3,10a,11,13,14-pentaaza-6,9-methanonaphtho[1,8-ab]heptene], the results for the IC50 (in experiment [1]; in the experiment on AGS p-ERK; in experiment [2]) were 202 nM, 50.2 nM and 73.3 nM, respectively.
As to `[2H]C([2H])([2H])[C@@H]1Oc2nc(-c3cc(N)cc4cccc(C#C)c34)c(F)c3nc(OC[C@@]45CCCN4CC(=C(F)F)C5)nc(c23)N2C[C@H]3CC[C@H](N3)[C@@H]12` [Z1044, 4-((5S,5aS,6S,9R)-12-(((S)-2-(difluoromethylene)tetrahydro-1H-pyrrolizin-7a(5H)-yl)methoxy)-1-fluoro-5-(methyl-d3)-5a,6,7,8,9,10-hexahydro-5H-4-oxa-3,10a,11,13,14-pentaaza-6,9-methanonaphtho[1,8-ab]hepten-2-yl)-5-ethynylnaphthalen-2-amine], the IC50 turned out to be 0.92 nM in experiment [1] (Homo sapiens, ASPC1, 120 h); 0.34 nM in the experiment with AGS p-ERK (Homo sapiens); 0.53 nM in experiment [2] (Homo sapiens, 120 h).
In the case of `C#Cc1cccc2cc(N)cc(-c3nc4c5c(nc(OCC67CCCN6CCC7(F)F)nc5c3F)N3C[C@H]5CC[C@H](N5)[C@H]3[C@H](C)O4)c12` (stereo partly drawn) [Z741, 4-((5S,5aS,6S,9R)-12-((1,1-difluorotetrahydro-1H-pyrrolizin-7a(5H)-yl)methoxy)-1-fluoro-5-methyl-5a,6,7,8,9,10-hexahydro-5H-4-oxa-3,10a,11,13,14-pentaaza-6,9-methanonaphtho[1,8-ab]hepten-2-yl)-5-ethynylnaphthalen-2-amine], the concentration for half-maximal inhibition (IC50) in experiment [1] (Homo sapiens, ASPC1, 120 h) turned out to be 10.1 nM; in the experiment with AGS p-ERK (Homo sapiens), 4.06 nM; in experiment [2] (Homo sapiens, 120 h), 19.2 nM.
Turning to `C[C@@H]1Oc2nc(-c3cc(N)cc(Cl)c3C(F)(F)F)cc3nc(OC[C@@]45CCCN4CC(=C(F)F)C5)nc(c23)N2C[C@H]3CC[C@H](N3)[C@@H]12` [Z1085, 3-chloro-5-((5S,5aS,6S,9R)-12-(((S)-2-(difluoromethylene)tetrahydro-1H-pyrrolizin-7a(5H)-yl)methoxy)-5-methyl-5a,6,7,8,9,10-hexahydro-5H-4-oxa-3,10a,11,13,14-pentaaza-6,9-methanonaphtho[1,8-ab]hepten-2-yl)-4-(trifluoromethyl) aniline], the IC50 is 3.04 nM in experiment [1] (Homo sapiens, ASPC1, 120 h); 0.78 nM in the experiment on AGS p-ERK (Homo sapiens); 0.88 nM in experiment [2] (Homo sapiens, 120 h).
For `[2H]C([2H])([2H])[C@@H]1Oc2nc(-c3cc(N)cc(Cl)c3C(F)(F)F)c(F)c3nc(OC[C@]45CCCN4CCC5=C)nc(c23)N2C[C@H]3CC[C@H](N3)[C@@H]12` [Z1060, 3-chloro-5-((5S,5aS,6S,9R)-1-fluoro-5-(methyl-d3)-12-(((R)-1-methylenetetrahydro-1H-pyrrolizin-7a(5H)-yl)methoxy)-5a,6,7,8,9,10-hexahydro-5H-4-oxo-3,10a,11,13,14-pentaaza-6,9-methanonaphtho[1,8-ab]hepten-2-yl)-4-(trifluoromethyl) aniline], in that order: 1.63 nM, 0.72 nM and 0.19 nM.
The like results for `C#Cc1cccc2cc(N)cc(-c3nc4c5c(nc(OCC67CCCN6CCC7=C(F)F)nc5c3F)N3C[C@H]5CC[C@H](N5)[C@H]3[C@H](C)O4)c12` (stereo partly drawn) [Z745, 4-((5S,5aS,6S,9R)-12-((1-(difluoromethylene)tetrahydro-1H-pyrrolizin-7a(5H)-yl)methoxy)-1-fluoro-5-methyl-5a,6,7,8,9,10-hexahydro-5H-4-oxa-3,10a,11,13,14-pentaaza-6,9-methanonaphtho[1,8-ab]hepten-2-yl)-5-ethynylnaphthalen-2-amine] were, in that order, 4.48 nM, 0.84 nM and 3.95 nM.
